Experimental data published in ChEMBL document CHEMBL3826958, “Zinc-mediated binding of a low-molecular-weight stabilizer of the host anti-viral factor apolipoprotein B mRNA-editing enzyme, catalytic polypeptide-like 3G” (Bioorg Med Chem, 2016).
The source made the active and inactive calls. The rule behind the calls is not given here.

Experiments:
[1] = biological target: DNA dC->dU-editing enzyme APOBEC-3G (Homo sapiens) (UniProt Q9HC16); experiment: Binding affinity to FLAG-tagged human A3G expressed in human 293T cells at 13 uM incubated for 16 hrs by streptavidin agarose based immunoblot analysis; assay type: cell-based
DNA dC->dU-editing enzyme APOBEC-3G (Homo sapiens), sequence (Q9HC16 whole entry): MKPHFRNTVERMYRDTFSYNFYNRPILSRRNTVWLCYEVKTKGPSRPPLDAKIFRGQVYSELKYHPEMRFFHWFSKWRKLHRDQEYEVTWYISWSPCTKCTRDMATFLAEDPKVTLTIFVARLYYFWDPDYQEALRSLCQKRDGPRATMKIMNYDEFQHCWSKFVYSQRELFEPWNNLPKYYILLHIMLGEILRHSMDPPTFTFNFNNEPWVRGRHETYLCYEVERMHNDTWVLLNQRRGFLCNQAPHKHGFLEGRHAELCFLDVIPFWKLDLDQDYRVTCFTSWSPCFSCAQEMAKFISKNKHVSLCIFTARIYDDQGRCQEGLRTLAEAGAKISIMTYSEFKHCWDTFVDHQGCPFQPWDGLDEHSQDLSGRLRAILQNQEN

[2] = biological target: DNA dC->dU-editing enzyme APOBEC-3G (Homo sapiens) (UniProt Q9HC16); experiment: Binding affinity to FLAG-tagged human A3G expressed in human 293T cells at 13 uM incubated for 16 hrs in presence of EDTA by streptavidin agarose based immunoblot analysis; assay type: cell-based

SMILES | Activity [1] | Activity [2]
O=C(CCCC[C@@H]1SC[C@@H]2NC(=O)N[C@@H]21)NCCCCCCOC(=O)Nc1cc(CNCCS)nc(CNCCS)c1 | Active | inactive
COC(=O)CCCC[C@@H]1SC[C@@H]2NC(=O)N[C@@H]21 | inactive | 
